According to patent US11959083B2, “Immunosuppression-reverting oligonucleotides inhibiting the expression of CD39” (Secarna Pharmaceuticals GmbH & Co. KG, priority 2016, dated 2024):
l = locked nucleic acid (LNA); d = 2'-deoxy (DNA)

Key:
hCD39 mRNA [1] = assay: hCD39 mRNA knockdown efficacy screen in HDLM-2 cells (single dose, gymnotic delivery, QuantiGene Singleplex); assay type: cell-based, human; design: key to Relative hCD39 mRNA expression (compared to non-treated cells): *: values are below detection limit; conditions: 10 μM, 3 days; for Mean hCD39 mRNA expression normalized to HPRT1 relative to untreated control = 1: first screening round; for Relative hCD39 mRNA expression (compared to non-treated cells): second screening round, normalized to HPRT1
Method: (§1) FIGS. 2A to 2D depict hCD39 mRNA knockdown efficacy of hCD39 antisense oligonucleotides in human cancer cell lines HDLM-2 (human Hodgkin Lymphoma) in a first and second screening round (FIGS. 2A-1 and 2A-2) and 2B-1 and 2B-2 and A-172 (human glioblastoma) in a first and second screening round (FIGS. 2C-1 and 2C-2) and 2D-1 and 2D-2. HDLM-2 and A-172 cells were treated for 3 days with 10 μM of the respective antisense oligonucleotide. As negative control, cells were treated with neg1, an antisense oligonucleotide having the sequence CGTTTAGGCTATGTACTT (SEQ ID NO:99) (described in WO2014154843 A1). Residual hCD39 mRNA expression relative to untreated cells is depicted. Expression values were normalized to expression of the housekeeping gene HPRT1. Depicted is the mean of triplicate wells+/−SD.
(§2) FIGS. 6A-6B depicts a third screening round where further antisense oligonucleotides were designed. These antisense oligonucleotides were based on efficient antisense oligonucleotides from the first and second screening round. Therefore, hCD39 antisense oligonucleotides were tested in human cancer cell lines HDLM-2 (human Hodgkin's lymphoma) (FIG. 6A) and A-172 (human glioblastoma) (FIG. 6B). HDLM-2 and A-172 cells were treated for 3 days with 10 μM of the respective antisense oligonucleotide. […] Residual hCD39 mRNA expression relative to untreated cells (set as 1) is depicted.
(§3) In order to analyze the efficacy of hCD39 antisense oligonucleotides of the present invention with regard to the knockdown of hCD39 mRNA expression in cancer cell lines, HDLM-2 (human Hodgkin Lymphoma, DSMZ) and A-172 (human glioblastoma, ATCC) cells were treated with a single dose (concentration: 10 μM without addition of any transfection reagent; this process is called gymnotic delivery) of the respective antisense oligonucleotide as shown in FIG. 2A to 2D. hCD39 and HPRT1 mRNA expression was analyzed three days later using the QuantiGene Singleplex assay (Affymetrix) and hCD39 expression values were normalized to HPRT1 values. […] Values of the mean normalized mRNA expression of hCD39 compared to non-treated cells are listed for A-172 (Table 4 for first screening round and Table 5 for second screening round) and HDLM-2 cells (Table 6 for first screening round and Table 7 for second screening round) in the following:
(§4) For a third screening round, new antisense oligonucleotides were designed. These antisense oligonucleotides were based on efficient antisense oligonucleotides from the first screening round with modifications in length, exact position on mRNA and chemical modification pattern. Therefore, hCD39 antisense oligonucleotides were tested in human cancer cell lines (FIG. 6A, Table 10) HDLM-2 (human Hodgkin's lymphoma) and (FIG. 6B, Table 11) A-172 (human glioblastoma). HDLM-2 and A-172 cells were treated for 3 days with 10 μM of the respective antisense oligonucleotide. […] Residual hCD39 mRNA expression relative to untreated cells (set as 1) is depicted.

hCD39 mRNA [2] = assay: hCD39 mRNA knockdown efficacy screen in A-172 cells (single dose, gymnotic delivery, QuantiGene Singleplex); assay type: cell-based, human; conditions: 10 μM, 3 days, normalized to HPRT1; for Mean hCD39 mRNA expression (relative to untreated cells set as 1): first screening round; for Relative hCD39 mRNA expression (compared to non-treated cells): second screening round
Method: as §1, §2, §3, §4

Row | Substance | Mean hCD39 mRNA expression normalized to HPRT1 relative to untreated control = 1 (hCD39 mRNA [1]) | Relative hCD39 mRNA expression (compared to non-treated cells) (hCD39 mRNA [1]) | Mean hCD39 mRNA expression (relative to untreated cells set as 1) (hCD39 mRNA [2]) | Relative hCD39 mRNA expression (compared to non-treated cells) (hCD39 mRNA [2])
1 | +A*+A*+A*G*T*C*C*A*G*C*C*G*G*C*G*+T*+C (antisense AAAGTCCAGCCGGCGTC; sugars from the 5' end l3 d12 l2, all phosphorothioate, methylation of C not given here) [A04050H] | 0.11 | 0.90 | 0.55 | 0.28
2 | +A*+A*+G*G*T*C*A*C*T*T*A*C*G*T*+T*+C*+A (antisense AAGGTCACTTACGTTCA; sugars from the 5' end l3 d11 l3, all phosphorothioate, methylation of C not given here) [A04046H] | 0.04 | 0.37 | 0.14 | 0.08
3 | +A*+A*+T*C*C*C*C*C*T*G*G*A*+G*+T*+G (antisense AATCCCCCTGGAGTG; sugars from the 5' end l3 d9 l3, all phosphorothioate, methylation of C not given here) [A04011H] | 0.29 | 0.30 |  | 0.69
4 | +A*+C*+G*T*T*C*A*C*T*A*C*C*T*T*+C*+T*+T (antisense ACGTTCACTACCTTCTT; sugars from the 5' end l3 d11 l3, all phosphorothioate, methylation of C not given here) [A04043H] | 0.04 | * | 0.21 | 0.11
5 | +A*+C*+T*A*T*G*C*T*G*A*A*C*C*A*+C*+C (antisense ACTATGCTGAACCACC; sugars from the 5' end l3 d11 l2, all phosphorothioate, methylation of C not given here) [A04022H] | 0.09 | 0.09 | 0.14 | 0.15
6 | +A*+C*+T*C*C*A*C*A*C*T*A*A*T*+G*+C*+T (antisense ACTCCACACTAATGCT; sugars from the 5' end l3 d10 l3, all phosphorothioate, methylation of C not given here) [A04037H] | 0.12 | 0.10 | 0.17 | 0.09
7 | +A*+C*+T*C*C*A*G*C*G*T*A*A*+G*+A*+T (antisense ACTCCAGCGTAAGAT; sugars from the 5' end l3 d9 l3, all phosphorothioate, methylation of C not given here) [A04013H] | 0.22 | 0.22 |  | 0.75
8 | +A*+G*+C*C*T*A*T*G*A*T*G*G*C*C*+A*+C (antisense AGCCTATGATGGCCAC; sugars from the 5' end l3 d11 l2, all phosphorothioate, methylation of C not given here) [A04031H] |  | * |  | 0.55
9 | +A*+G*+C*G*T*A*A*G*A*T*G*T*+T*+T*+T (antisense AGCGTAAGATGTTTT; sugars from the 5' end l3 d9 l3, all phosphorothioate, methylation of C not given here) [A04012H] | 0.11 | 0.10 | 0.43 | 0.43
10 | +A*+G*+G*C*G*A*A*A*T*T*G*C*+A*+G*+A (antisense AGGCGAAATTGCAGA; sugars from the 5' end l3 d9 l3, all phosphorothioate, methylation of C not given here) [A04008H] | 0.20 | 0.20 | 0.46 | 0.46
11 | +A*+G*A*G*T*G*C*C*T*G*A*T*C*C*+T*+T (antisense AGAGTGCCTGATCCTT; sugars from the 5' end l2 d12 l2, all phosphorothioate, methylation of C not given here) [A04025H] | 0.08 | 0.08 | 0.13 | 0.13
12 | +A*+G*G*A*T*A*G*T*C*T*T*G*T*C*+T*+C (antisense AGGATAGTCTTGTCTC; sugars from the 5' end l2 d12 l2, all phosphorothioate, methylation of C not given here) [A04034H] | 0.06 | 0.06 | 0.28 | 0.15
13 | +A*+G*T*C*C*A*G*C*C*G*G*C*G*T*+C (antisense AGTCCAGCCGGCGTC; sugars from the 5' end l2 d12 l1, all phosphorothioate, methylation of C not given here) [A04015H] | 0.29 | 0.29 |  | 1.05
14 | +A*+T*+G*T*A*G*C*C*C*A*A*A*G*T*+C*+C (antisense ATGTAGCCCAAAGTCC; sugars from the 5' end l3 d11 l2, all phosphorothioate, methylation of C not given here) [A04028H] | 0.07 | 0.07 | 0.29 | 0.29
15 | +C*+A*+T*G*T*A*G*C*C*C*A*A*A*+G*+T*+C (antisense CATGTAGCCCAAAGTC; sugars from the 5' end l3 d10 l3, all phosphorothioate, methylation of C not given here) [A04029H] | 0.03 | 0.03 | 0.45 | 0.46
16 | +C*+C*+C*T*C*T*C*A*C*T*A*A*A*+T*+T*+A (antisense CCCTCTCACTAAATTA; sugars from the 5' end l3 d10 l3, all phosphorothioate, methylation of C not given here) [A04036H] | 0.26 | 0.01 | 0.55 | 0.28
17 | +C*+C*C*T*G*G*A*T*C*T*T*G*C*C*+A*+A*+T (antisense CCCTGGATCTTGCCAAT; sugars from the 5' end l2 d12 l3, all phosphorothioate, methylation of C not given here) [A04049H] |  | * |  | 0.45
18 | +C*+T*+A*T*G*C*T*G*A*A*C*C*+A*+C*+C (antisense CTATGCTGAACCACC; sugars from the 5' end l3 d9 l3, all phosphorothioate, methylation of C not given here) [A04005H] | 0.21 | 0.21 | 0.11 | 0.11
